molecular target: Cyclin-dependent kinase 2/cyclin E1 (Homo sapiens, UniProt P24941); assay: Inhibition of CDK2/cyclin E (unknown origin) expressed in baculovirus infected insect Sf9 cells using histone H1 as substrate in presence of [gamma-33P]ATP

SMILES | IC50 [nM]
CN(C)C(=O)c1ccc(-c2ccc(-c3cc(NCc4cccnc4)n4ncc(Br)c4n3)cc2)cc1 | 64
NC(=O)c1ccc(-c2ccc(-c3cc(NCc4cccnc4)n4ncc(Br)c4n3)cc2)cc1 | 37
OCc1ccc(-c2ccc(-c3cc(NCc4cccnc4)n4ncc(Br)c4n3)cc2)cc1 | 45
NC(=O)c1ccc(-c2ccc(-c3cc(NCc4cccnc4)n4ncc(Br)c4n3)cc2)c(O)c1 | 15
Nc1ccc(-c2ccc(-c3cc(NCc4cccnc4)n4ncc(Br)c4n3)cc2)cc1 | 140
CCc1cnn2c(NCc3cccnc3)cc(-c3ccc(-c4ccc(C(N)=O)cc4)cc3)nc12 | 18
Brc1cnn2c(NCc3cccnc3)cc(-c3ccc(-c4ccccc4)cc3)nc12 | 490
CN(C)C(=O)c1ccc(-c2ccc(-c3cc(NCc4cccnc4)n4nccc4n3)cc2)cc1 | 1970
CCc1cnn2c(NCc3cccnc3)cc(-c3ccc(-c4ccc(CO)cc4)cc3)nc12 | 130
c1ccc(-c2ccc(-c3cc(NCc4cccnc4)n4nccc4n3)cc2)cc1 | 12600
Oc1ccc(-c2ccc(-c3cc(NCc4cccnc4)n4ncc(Br)c4n3)cc2)cc1 | 140
N#CCCc1cc(-c2ccc(-c3cc(NCc4cccnc4)n4ncc(Br)c4n3)cc2)ccc1C(N)=O | 53

The remaining lines, values ahead:

IC50 [nM] | SMILES
5530 | COc1cc(-c2ccc(-c3cc(NCc4cccnc4)n4nccc4n3)cc2)ccc1C(N)=O
6110 | OCc1ccc(-c2ccc(-c3cc(NCc4cccnc4)n4nccc4n3)cc2)cc1
2670 | NC(=O)c1ccc(-c2ccc(-c3cc(NCc4cccnc4)n4nccc4n3)cc2)cc1O
4910 | Nc1ccc(-c2ccc(-c3cc(NCc4cccnc4)n4nccc4n3)cc2)cc1
3940 | NC(=O)c1ccc(-c2ccc(-c3cc(NCc4cccnc4)n4nccc4n3)cc2)cc1
5450 | N#CCCc1cc(-c2ccc(-c3cc(NCc4cccnc4)n4nccc4n3)cc2)ccc1C(N)=O
3860 | Oc1ccc(-c2ccc(-c3cc(NCc4cccnc4)n4nccc4n3)cc2)cc1
52 | NC(=O)c1ccc(-c2ccc(-c3cc(NCc4cccnc4)n4ncc(Br)c4n3)cc2)cc1O
31 | CCc1cnn2c(NCc3cccnc3)cc(-c3ccc(-c4ccc(C(N)=O)c(O)c4)cc3)nc12

— ChEMBL document CHEMBL4000218, “Explicit treatment of active-site waters enhances quantum mechanical/implicit solvent scoring: Inhibition of CDK2 by new pyrazolo[1,5-a]pyrimidines” (Eur J Med Chem, 2017)
